Like-named read-outs stand apart in the source and are kept apart here.
What was measured:
E. coli GroEL/ES = target: T1, E. coli GroEL/ES (Escherichia coli, UniProt P0A6F5); test: GroEL/ES-mediated dRho refolding assay; assay type: biochemical
T1 construct: made in house; host or cells: GroEL in NEB 5-alpha E. coli; GroES in E. coli BL21 (DE3)
Protocol: Evaluating compounds for inhibition in the GroEL/ES-mediated dRho refolding assay. Reagent preparation: For this assay, five primary reagent stocks were prepared: 1) GroEL/ES-dRho binary complex stock; 2) ATP initiation stock; 3) thiocyanate enzymatic assay stock; 4) formaldehyde quench stock; 5) ferric nitrate reporter stock. Denatured rhodanese (dRho) was prepared by 3-fold dilution of rhodanese (Roche product #R^1756, diluted to 10 mg/mL with H2O) with denaturant buffer (12 M Urea, 50 mM Tris-HCl, pH 7.4, and 10 mM DTT). Rhodanese was completely denatured by incubating at room temperature for >45 min. The binary complex solution was prepared by slowly adding the dRho stock to a stirring stock of concentrated GroEL in modified folding buffer (50 mM Tris-HCl, pH 7.4, 50 mM KCl, 10 mM MgCl2, 5 mM Na2S2O3, and 1 mM DTT). The solution was centrifuged at 16,000×g for 5 minutes, and the supernatant was collected and added to a solution of GroES in modified folding buffer to give final protein concentrations of 100 nM GroEL, 120 nM GroES, and 80 nM dRho. The binary complex stock was prepared immediately prior to use. For the ATP initiation stock, ATP solid was diluted into modified folding buffer to a final concentration of 2.0 mM. The thiocyanate enzymatic assay stock was prepared to contain 70 mM KH2PO4, 80 mM KCN, and 80 mM Na2S2O3 in water. The formaldehyde quench solution contained 30% formaldehyde in water.
Assay Protocol: First, 10 μL aliquots of the GroEL/ES-dRho complex stock were dispensed into clear, flat-bottom 384-well polystyrene plates. […] After incubating for 40 minutes at 37° C. for the refolding cycle, 30 μL of the thiocyanate enzymatic assay stock was added and incubated for 60 min at room temperature for the refolded rhodanese enzymatic reporter reaction. The reporter reaction was quenched by adding 10 μL of the formaldehyde quench stock, and then 40 μL of the ferric nitrate reporter stock was added to quantify the amount of thiocyanate produced during the enzymatic reporter reaction, which is proportional to the amount of dRho refolded by GroEL/ES. After incubating at room temperature for 15 min, the absorbance by Fe(SCN)3 was measured at 460 nm using a Molecular Devices SpectraMax Plus384 microplate reader. A second set of baseline control plates were prepared analogously, but without GroEL/ES-dRho protein binary solution, to correct for possible interference from compound absorbance or turbidity. […] Results presented represent the averages of IC50 values obtained from at least four replicates.
Evaluating compounds for inhibition in the GroEL/ES-mediated dRho refolding assay. All compounds were evaluated for inhibiting E. coli GroEL/ES-mediated refolding of the denatured Rho reporter enzyme as per our previously reported procedure. Results presented represent the averages of IC50 values obtained from at least four replicates.

E. coli GroEL = target: T2, E. coli GroEL (Escherichia coli, UniProt P0A6F5); test: GroEL-mediated ATPase assay; assay type: biochemical
T2 construct: made in house; host or cells: NEB 5-alpha E. coli
T2 sequence (P0A6F5 2-548): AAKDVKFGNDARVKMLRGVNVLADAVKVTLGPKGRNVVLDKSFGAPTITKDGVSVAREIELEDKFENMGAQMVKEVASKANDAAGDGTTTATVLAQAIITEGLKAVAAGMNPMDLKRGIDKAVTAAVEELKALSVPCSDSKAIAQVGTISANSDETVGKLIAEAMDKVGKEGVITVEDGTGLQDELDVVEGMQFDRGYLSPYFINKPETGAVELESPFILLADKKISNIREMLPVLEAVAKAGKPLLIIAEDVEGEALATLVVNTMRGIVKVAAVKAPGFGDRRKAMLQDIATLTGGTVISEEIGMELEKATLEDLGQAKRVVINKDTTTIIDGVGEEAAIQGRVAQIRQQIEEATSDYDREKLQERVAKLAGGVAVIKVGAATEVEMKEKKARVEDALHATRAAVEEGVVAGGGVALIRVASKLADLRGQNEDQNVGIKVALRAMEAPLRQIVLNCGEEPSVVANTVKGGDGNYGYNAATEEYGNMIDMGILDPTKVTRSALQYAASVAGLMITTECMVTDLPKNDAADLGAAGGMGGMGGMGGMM
Protocol: Evaluating compounds for inhibition in the GroEL-mediated ATPase assay. All compounds were evaluated for inhibiting E. coli GroEL-mediated ATPase activity as per our previously reported procedure although employing only GroEL in solution and not containing GroES or denatured MDH. Evaluating compounds for inhibition in the GroEL-mediated ATPase assay.
Reagent preparation: For this assay, four primary reagent solutions were prepared: 1) GroEL protein solution; 2) ATP initiation solution; 3) EDTA quench solution; 4) malachite green reporter solution. The GroEL protein solution consisted of 100 nM of GroEL in folding buffer (50 mM Tris-HCl, pH 7.4, 50 mM KCl, 10 mM MgCl2, and 1 mM DTT), which was prepared immediately prior to dispensing into the assay plates. For the ATP initiation solution, ATP solid was diluted into folding buffer to a final concentration of 2 mM. Quench solution contained 300 mM EDTA (pH 8.0). The malachite green reporter solution contained 0.034% w/v malachite green, 1.04% w/v ammonium molybdate, 1% Tween-20, and 1 M HCl dissolved in H2O.
Assay Protocol: First, 10 μL aliquots of the GroEL protein solution were dispensed into clear, flat-bottom 384-well polystyrene plates. […] After incubating for 45 minutes at 37° C., 10 μL of the EDTA quench solution was added to quench the reaction cycle. Then, 60 μL of the malachite green reporter solution was added and the plates were incubated at room temperature for 10 min. The absorbance of the malachite green-phosphate complex was measured at 600 nm using a Molecular Devices SpectraMax Plus384 microplate reader. A second set of baseline control plates were prepared analogously, but without GroEL protein solution, to correct for possible interference from compound absorbance or turbidity. […] Results presented represent the averages of IC50 values obtained from at least four replicates.
Evaluating analogs for inhibiting GroEL-mediated ATPase activity. […] Thus, we further tested analogs in a well-established GroEL ATPase assay that employed malachite green to monitor inorganic phosphate liberated as GroEL hydrolyzed ATP. Briefly, a solution of GroEL was incubated with test compounds (8-point, 3-fold dilution series) and the assay was initiated by addition of ATP. After incubating for 45 minutes, the ATPase reaction was quenched by the addition of EDTA. Malachite green was then added to the assay to bind and detect free phosphates in solution (absorbance detection at k=600 nm). If analogs inhibited ATPase activity, then there would be no free phosphates for malachite green to bind, leading to minimal absorbance at 600 nm.

T1 sequence (P0A6F5 2-548): as above

SMILES	IC50 (E. coli GroEL/ES)	IC50 (E. coli GroEL)	IC50 (E. coli GroEL/ES; read-out: GroEL/ES-dRho Refolding IC50)
O=C(N/N=C/c1ccc(O)c2ncccc12)c1ccc(O)cc1 [Compound 7, 4-hydroxy-N′-((8-hydroxyquinolin-5-yl)methylene)benzohydrazide]	9 µM	> 250 µM	–
O=C(N/N=C/c1ccc([N+](=O)[O-])o1)c1ccc(NS(=O)(=O)c2ccc(Br)cc2)cc1 [Compound 27, 4-bromo-N-(4-(2-((5-nitrofuran-2-yl)methylene)hydrazine-1-carbonyl)phenyl)benzenesulfonamide]	59 µM	> 250 µM	–
O=C(N/N=C/c1cccc2ncccc12)c1ccccc1 [Compound 32, N′-(quinolin-5-ylmethylene)benzohydrazide]	> 250 µM	> 250 µM	–
COc1ccc(C(=O)N/N=C/c2cccc3ccccc23)cc1 [Compound 33, 4-methoxy-N′-(naphthalen-1-ylmethylene)benzohydrazide]	129 µM	> 250 µM	–
O=C(N/N=C/c1ccc(O)c2ncccc12)c1cccs1 [Compound 3, N′-((8-hydroxyquinolin-5-yl)methylene)thiophene-2-carbohydrazide]	38 µM	> 250 µM	–
O=C(N/N=C/c1ccc(O)c2ncccc12)c1ccncc1 [Compound 6, N′-((8-hydroxyquinolin-5-yl)methylene)isonicotinohydrazide]	> 250 µM	> 250 µM	–
CN(C)c1ccc(C(=O)N/N=C/c2ccc(O)c3ncccc23)cc1 [Compound 8, 4-(dimethylamino)-N′-((8-hydroxyquinolin-5-yl)methylene)benzohydrazide]	7.9 µM	> 250 µM	–
CCOc1ccc(S(=O)(=O)Nc2ccc(C(=O)N/N=C/c3ccc([N+](=O)[O-])o3)cc2)cc1 [Compound 28, 4-ethoxy-N-(4-(2-((5-nitrofuran-2-yl)methylene)hydrazine-1-carbonyl)phenyl)benzenesulfonamide]	66 µM	> 250 µM	–
CN(C)c1ccc(C(=O)N/N=C/c2ccc([N+](=O)[O-])o2)cc1 [Compound 21, 4-(dimethylamino)-N′-((5-nitrofuran-2-yl)methylene)benzohydrazide]	–	> 250 µM	26 µM
O=Cc1ccc([N+](=O)[O-])o1 [Compound 41, reference compound]	31 µM	> 250 µM	–
O=C(N/N=C/c1ccc(O)c2ncccc12)c1cccc(Oc2ccccc2)c1 [Compound 11, N′-((8-hydroxyquinolin-5-yl)methylene)-3-phenoxybenzohydrazide]	7.8 µM	> 250 µM	–
COc1ccc(C(=O)N/N=C/c2ccc([N+](=O)[O-])o2)cc1 [Compound 20, 4-methoxy-N′-((5-nitrofuran-2-yl)methylene)benzohydrazide]	108 µM	> 250 µM	–
COc1ccc(C(=O)N/N=C/c2ccccc2)cc1 [Compound 37, N′-benzylidene-4-methoxybenzohydrazide]	> 250 µM	> 250 µM	–
O=[N+]([O-])c1ccc(O)c2ncccc12 [Nitroxoline, reference compound]	6.4 µM	> 250 µM	–
COc1ccc(C(=O)N/N=C/c2ccc(O)cc2)cc1 [Compound 35, N′-(4-hydroxybenzylidene)-4-methoxybenzohydrazide]	> 250 µM	> 250 µM	–
O=C1CN(/N=C/c2ccc(O)c3ncccc23)C(=O)N1 [Compound 2, 1-(((8-hydroxyquinolin-5-yl)methylene)amino)imidazolidine-2,4-dione]	86.4 µM	> 250 µM	–

Source: patent publication US20220009914A1, “Analogs of Nitrofuran Antibiotics to Combat Resistance” (The Trustees of Indiana University, priority 2020, published 2022)
